Assay results from patent US6914045B2, “Glycopeptide antibiotics” (Wyeth Holdings Corporation, priority 2001, dated 2005).
Converted amounts (≈) assume the structure as drawn.

How the values were obtained:
Assay in all cases: in vitro antibacterial evaluation, MIC by broth dilution
Assay type in all cases: cell-based
Streptococcus sp. = conditions: broth dilution, 18 hours at 35° C.
Summary of the method: (§1)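 Broth dilution per NCCLS standard M7-A2 in Muller-Hinton II […], with an inoculum of 5×10^5 CFU/mL and antibiotic spanning 64-0.06 μg/mL. The MIC is the lowest concentration that inhibits growth of the organism.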

Staphylococcus sp. = conditions: broth dilution, 18 hours at 35° C.
Summary of the method: as §1

Enterococcus sp. = conditions: broth dilution, 18 hours at 35° C.
Summary of the method: as §1

Escherichia coli = conditions: 18 hours at 35° C.
Summary of the method: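 Test organisms, which included recent clinical isolates resistant to methicillin, penicillin and/or vancomycin, were inoculated at 5×10^5 CFU/mL into Muller-Hinton II […] containing antibiotic at 64-0.06 μg/mL. Minimum inhibitory concentrations were then read as the lowest level inhibiting growth.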

- MIC Streptococcus agalactiae (GC 4564) (Streptococcus sp.; strain GC 4564): 8 µg/mL (≈ 5.72 µM)
- MIC Streptococcus pyogenes (ID-3187) (Streptococcus sp.; strain ID-3187): 4 µg/mL (≈ 2.86 µM)
- MIC Coagulase Negative Staphylococcus (GC 4547) (Staphylococcus sp.): 8 µg/mL (≈ 5.72 µM)
- MIC Coagulase Negative Staphylococcus (GC 4548) (Staphylococcus sp.): 4 µg/mL (≈ 2.86 µM)
- MIC Coagulase Negative Staphylococcus (GC 4549) (Staphylococcus sp.): 4 µg/mL (≈ 2.86 µM)
- MIC Coagulase Negative Staphylococcus (GC 4551) (Staphylococcus sp.): 16 µg/mL (≈ 11.4 µM)
- MIC Staphylococcus aureus (ATCC 29213) (Staphylococcus sp.): 16 µg/mL (≈ 11.4 µM)
- MIC Staphylococcus aureus (GC 1131) (Staphylococcus sp.): 16 µg/mL (≈ 11.4 µM)
- MIC Staphylococcus aureus (GC 4541) (Staphylococcus sp.): 16 µg/mL (≈ 11.4 µM)
- MIC Staphylococcus aureus (GC 4542) (Staphylococcus sp.): 16 µg/mL (≈ 11.4 µM)
- MIC Staphylococcus aureus (GC 4544) (Staphylococcus sp.): 8 µg/mL (≈ 5.72 µM)
- MIC Staphylococcus aureus (GC 4545) (Staphylococcus sp.): 8 µg/mL (≈ 5.72 µM)
- MIC Staphylococcus aureus-SMITH (GC 4543) (Staphylococcus sp.): 8 µg/mL (≈ 5.72 µM)
- MIC Staphylococcus aureus (ATCC 29213) (Staphylococcus sp.; strain ATCC 29213): 16 µg/mL (≈ 11.4 µM)
- MIC Staphylococcus aureus (GC 1131) (Staphylococcus sp.; strain GC 1131): 16 µg/mL (≈ 11.4 µM)
- MIC Staphylococcus aureus (GC 4541) (Staphylococcus sp.; strain GC 4541): 16 µg/mL (≈ 11.4 µM)
- MIC Staphylococcus aureus (GC 4542) (Staphylococcus sp.; strain GC 4542): 16 µg/mL (≈ 11.4 µM)
- MIC Staphylococcus aureus (GC 4544) (Staphylococcus sp.; strain GC 4544): 8 µg/mL (≈ 5.72 µM)
- MIC Staphylococcus aureus (GC 4545) (Staphylococcus sp.; strain GC 4545): 8 µg/mL (≈ 5.72 µM)
- MIC Coagulase Negative Staphylococcus (GC 4547) (Staphylococcus sp.; strain GC 4547): 8 µg/mL (≈ 5.72 µM)
- MIC Coagulase Negative Staphylococcus (GC 4548) (Staphylococcus sp.; strain GC 4548): 4 µg/mL (≈ 2.86 µM)
- MIC Coagulase Negative Staphylococcus (GC 4549) (Staphylococcus sp.; strain GC 4549): 4 µg/mL (≈ 2.86 µM)
- MIC Coagulase Negative Staphylococcus (GC 4551) (Staphylococcus sp.; strain GC 4551): 16 µg/mL (≈ 11.4 µM)
- MIC Staphylococcus aureus-SMITH (GC 4543) (Staphylococcus sp.; strain SMITH GC 4543): 8 µg/mL (≈ 5.72 µM)
- MIC Enterococcus avium (GC 4558) (Enterococcus sp.; Enterococcus avium (GC 4558)): >64 µg/mL
- MIC Enterococcus faecalis (ATCC 29212) (Enterococcus sp.; Enterococcus faecalis (ATCC 29212)): 64 µg/mL (≈ 45.8 µM)
- MIC Enterococcus faecalis (GC 4553) (Enterococcus sp.; Enterococcus faecalis (GC 4553)): >64 µg/mL
- MIC Enterococcus faecalis (GC 4554) (Enterococcus sp.; Enterococcus faecalis (GC 4554)): >64 µg/mL
- MIC Enterococcus faecium (GC 2243) (Enterococcus sp.; Enterococcus faecium (GC 2243)): >64 µg/mL
- MIC Enterococcus faecium (GC 4556) (Enterococcus sp.; Enterococcus faecium (GC 4556)): 64 µg/mL (≈ 45.8 µM)
- MIC Enterococcus faecium (GC 4557) (Enterococcus sp.; Enterococcus faecium (GC 4557)): 32 µg/mL (≈ 22.9 µM)
- MIC Enterococcus faecalis (ATCC 29212) (Enterococcus sp.; strain ATCC 29212): 64 µg/mL (≈ 45.8 µM)
- MIC Enterococcus faecalis (GC 2242) (Enterococcus sp.; strain GC 2242): 64 µg/mL (≈ 45.8 µM)
- MIC Enterococcus faecium (GC 2243) (Enterococcus sp.; strain GC 2243): >64 µg/mL
- MIC Enterococcus faecalis (GC 4552) (Enterococcus sp.; strain GC 4552): >64 µg/mL
- MIC Enterococcus faecalis (GC 4553) (Enterococcus sp.; strain GC 4553): >64 µg/mL
- MIC Enterococcus faecalis (GC 4554) (Enterococcus sp.; strain GC 4554): >64 µg/mL
- MIC Enterococcus faecium (GC 4556) (Enterococcus sp.; strain GC 4556): 64 µg/mL (≈ 45.8 µM)
- MIC Enterococcus faecium (GC 4557) (Enterococcus sp.; strain GC 4557): 32 µg/mL (≈ 22.9 µM)
- MIC Enterococcus avium (GC 4558) (Enterococcus sp.; strain GC 4558): >64 µg/mL
- MIC Escherichia coli (ATCC 25922) (Escherichia coli; Escherichia coli (ATCC 25922)): 64 µg/mL (≈ 45.8 µM)
- MIC Escherichia coli (GC 4559) (Escherichia coli; Escherichia coli (GC 4559)): >64 µg/mL
- MIC Escherichia coli (GC 4560) (Escherichia coli; Escherichia coli (GC 4560)): 4 µg/mL (≈ 2.86 µM)
Compound: CC(C)CC(=O)OC1C(OC2C(CO)OC(Oc3ccc(CC4NC(=O)C(C(C)c5cccc(F)c5)NC(=O)CNC(=O)C(CO)NC(=O)C(C(O)C5CNC(=N)N5C5OC(CO)C(O)C(O)C5O)NC(=O)C(C(O)C5CNC(=N)N5)NC4=O)cc3)C(O)C2O)OC(CO)C(O)C1O (stereo not drawn) [Example 264a, Cyclo[glycyl-3-fluoro-β-methylphenylalanyl-O-[4-O-[2-O-(3-methylbutanoyl)hexopyranosyl]-hexopyranosyl]tyrosyl-3-(2-iminoimidazolidin-4-yl)seryl-3-(3-hexopyranosyl-2-iminoimidazolidin-4-yl)serylseryl]]
- MIC Staphylococcus haemolyticus (GC 4546) (Staphylococcus sp.): 8 µg/mL (≈ 5.72 µM)
- MIC Staphylococcus haemolyticus (GC 4546) (Staphylococcus sp.; strain GC 4546): 8 µg/mL (≈ 5.72 µM)
